Where a name gives a salt, the structure may show the parent alone.
Molecular target: T1, wild-type human ALK (cytoplasmic domain, amino acids 1058-1620, N-terminal GST fusion) (Homo sapiens, UniProt Q9UM73)
T1 construct: The cytoplasmic domain (amino acids 1058-1620) of wild-type human ALK; GST (N); made in house; host or cells: SF9 insect cells
Experiment: ALK Inhibition in Enzyme Assay (Lance TR-FRET kinase assay)
Assay type: biochemical
Procedure, shortened: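 TR-FRET read-out (Eu-W1024 PT66 anti-phosphotyrosine plus streptavidin-allophycocyanin, 320 nm excitation) quantified biotinylated peptide phosphorylation by the purified kinase. Reaction ran 90 minutes at room temperature before quenching with 20 mM EDTA in Tris pH 7.5 buffer with NaCl, BSA and Tween-20.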

T1 sequence (Q9UM73 1058-1620): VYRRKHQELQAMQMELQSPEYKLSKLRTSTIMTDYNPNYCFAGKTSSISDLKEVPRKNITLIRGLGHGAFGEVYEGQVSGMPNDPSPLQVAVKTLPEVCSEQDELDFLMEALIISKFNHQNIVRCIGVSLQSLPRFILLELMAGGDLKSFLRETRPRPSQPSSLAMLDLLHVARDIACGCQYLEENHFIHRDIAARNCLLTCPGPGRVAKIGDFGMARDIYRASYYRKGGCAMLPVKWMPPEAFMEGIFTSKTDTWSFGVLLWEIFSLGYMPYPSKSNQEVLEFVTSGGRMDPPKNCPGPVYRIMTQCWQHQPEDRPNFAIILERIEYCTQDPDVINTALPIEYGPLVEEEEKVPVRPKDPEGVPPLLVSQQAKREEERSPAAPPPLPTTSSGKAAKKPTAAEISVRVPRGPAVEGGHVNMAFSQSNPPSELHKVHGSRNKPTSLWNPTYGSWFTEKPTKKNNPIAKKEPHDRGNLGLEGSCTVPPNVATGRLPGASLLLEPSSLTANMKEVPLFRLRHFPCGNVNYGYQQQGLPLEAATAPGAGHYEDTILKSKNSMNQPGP

**Q.** Which IC50 does the source give for `CC(C)(O)C1CCN(Cc2ccc3[nH]/c(=N\C(=O)c4ccc(F)cc4)n([C@H]4CC[C@@H](C(=O)O)CC4)c3c2)CC1` [Example 210, cis-4-((E)-2-(4-Fluorobenzoylimino)-6-((4-(2-hydroxypropan-2-yl)piperidin-1-yl)methyl)-2,3-dihydro-1H-benzo[d]imidazol-1-yl)cyclohexanecarboxylic acid] here?
**A.** The IC50 was 100 to 1000 nM.

**Q.** For `CC(C)(O)C1CCN(Cc2ccc3[nH]/c(=N\C(=O)c4ccc(F)cc4)n([C@H]4CC[C@@H](C(=O)N5CCNCC5)CC4)c3c2)CC1` [Example 211, (E)-4-Fluoro-N-(6-((4-(2-hydroxypropan-2-yl)piperidin-1-yl)methyl)-1-(cis-4-(piperazine-1-carbonyl)cyclohexyl)-1H-benzo[d]imidazol-2(3H)-ylidene)benzamide], which IC50 is on record?
**A.** Its IC50 is less than 50 nM.

**Q.** With `CC(C)(O)C1CCN(Cc2ccc3[nH]/c(=N\C(=O)c4ccc(F)cc4)n([C@H]4CC[C@@H](C(N)=O)CC4)c3c2)CC1` [Example 212, (E)-N-(1-(cis-4-Carbamoylcyclohexyl)-6-((4-(2-hydroxypropan-2-yl)piperidin-1-yl)methyl)-1H-benzo[d]imidazol-2(3H)-ylidene)-4-fluorobenzamide] as the compound, how does the IC50 read?
**A.** Its IC50 is less than 50 nM.

**Q.** With `CONC(=O)[C@H]1CC[C@@H](n2/c(=N/C(=O)c3ccc(F)cc3)[nH]c3ccc(CN4CCC(C(C)(C)O)CC4)cc32)CC1` [Example 213, (E)-4-Fluoro-N-(6-((4-(2-hydroxypropan-2-yl)piperidin-1-yl)methyl)-1-(cis-4-(methoxycarbamoyl)cyclohexyl)-1H-benzo[d]imidazol-2(3H)-ylidene)benzamide] as the compound, how does the IC50 read?
**A.** Its IC50 is less than 50 nM.

**Q.** With `CC(C)(CO)NC(=O)[C@H]1CC[C@@H](n2/c(=N/C(=O)c3ccc(F)cc3)[nH]c3ccc(CN4CCC(C(C)(C)O)CC4)cc32)CC1` [Example 214, (E)-4-Fluoro-N-(1-(cis-4-(1-hydroxy-2-methylpropan-2-ylcarbamoyl)cyclohexyl)-6-((4-(2-hydroxypropan-2-yl)piperidin-1-yl)methyl)-1H-benzo[d]imidazol-2(3H)-ylidene)benzamide] as the compound, how does the IC50 read?
**A.** The IC50 was less than 50 nM.

**Q.** For `CC(C)(C)NC(=O)[C@H]1CC[C@@H](n2/c(=N/C(=O)c3ccc(F)cc3)[nH]c3ccc(CN4CCC(C(C)(C)O)CC4)cc32)CC1` [Example 215, (E)-N-(1-(cis-4-(tert-Butylcarbamoyl)cyclohexyl)-6-((4-(2-hydroxypropan-2-yl)piperidin-1-yl)methyl)-1H-benzo[d]imidazol-2(3H)-ylidene)-4-fluorobenzamide], which IC50 is on record?
**A.** The IC50 was less than 50 nM.

**Q.** Which IC50 does the source give for `CC(C)(O)C1CCN(Cc2ccc3[nH]/c(=N\C(=O)c4ccc(F)cc4)n([C@H]4CC[C@@H](C(=O)N5CCCCC5)CC4)c3c2)CC1` [Example 216, (E)-4-Fluoro-N-(6-((4-(2-hydroxypropan-2-yl)piperidin-1-yl)methyl)-1-(cis-4-(piperidine-1-carbonyl)cyclohexyl)-1H-benzo[d]imidazol-2(3H)-ylidene)benzamide] here?
**A.** Its IC50 is less than 50 nM.

**Q.** For `CC(C)(O)C1CCN(Cc2ccc3[nH]/c(=N\C(=O)c4ccc(F)cc4)n([C@H]4CC[C@@H](C(=O)N5[C@@H]6CC[C@H]5CNC6)CC4)c3c2)CC1` [Example 217, (E)-N-(1-(cis-4-(3,8-Fiazabicyclo[3.2.1]octane-8-carbonyl)cyclohexyl)-6-((4-(2-hydroxypropan-2-yl)piperidin-1-yl)methyl)-1H-benzo[d]imidazol-2(3H)-ylidene)-4-fluorobenzamide dihydrochloride], which IC50 is on record?
**A.** The IC50 was less than 50 nM.

**Q.** `CC(C)NC(=O)[C@H]1CC[C@@H](n2/c(=N/C(=O)c3ccc(F)cc3)[nH]c3ccc(N4CCOCC4)cc32)CC1` [Example 218, (E)-4-Fluoro-N-(1-(cis-4-(isopropylcarbamoyl)cyclohexyl)-6-morpholino-1H-benzo[d]imidazol-2(3H)-ylidene)benzamide] was tested. Which IC50 did it give?
**A.** The IC50 was less than 50 nM.

**Q.** `CC(C)NC(=O)[C@H]1CC[C@@H](n2/c(=N/C(=O)c3ccc(F)cc3)[nH]c3ccc(Cl)cc32)CC1` [Example 219, (E)-N-(6-Chloro-1-(cis-4-(isopropylcarbamoyl)cyclohexyl)-1H-benzo[d]imidazol-2(3H)-ylidene)-4-fluorobenzamide] was tested. Which IC50 did it give?
**A.** Its IC50 is less than 50 nM.

**Q.** For `CC(C)NC(=O)[C@H]1CC[C@@H](n2/c(=N/C(=O)c3ccc(F)cc3)[nH]c3ccc(F)cc32)CC1` [Example 220, (E)-4-Fluoro-N-(6-fluoro-1-(cis-4-(isopropylcarbamoyl)cyclohexyl)-1H-benzo[d]imidazol-2(3H)-ylidene)benzamide], which IC50 is on record?
**A.** The IC50 was less than 50 nM.

**Q.** `CC(C)NC(=O)[C@H]1CC[C@@H](n2/c(=N/C(=O)c3ccc(F)cc3)[nH]c3ccc(-n4cncn4)cc32)CC1` [Example 221, (E)-4-Fluoro-N-(1-(cis-4-(isopropylcarbamoyl)cyclohexyl)-6-(1H-1,2,4-triazol-1-yl)-1H-benzo[d]imidazol-2(3H)-ylidene)benzamide] was tested. Which IC50 did it give?
**A.** The IC50 was less than 50 nM.

**Q.** How did the IC50 turn out when `CC(C)NC(=O)[C@H]1CC[C@@H](n2/c(=N/C(=O)c3ccc(F)cc3)[nH]c3cnc(N4CCOCC4)cc32)CC1` [Example 222, (E)-4-Fluoro-N-(1-(cis-4-(isopropylcarbamoyl)cyclohexyl)-6-morpholino-1H-imidazo[4,5-c]pyridin-2(3H)-ylidene)benzamide] was run?
**A.** The IC50 was less than 50 nM.

**Q.** `CC(C)NC(=O)[C@H]1CC[C@@H](n2/c(=N/C(=O)c3ccc(F)cc3)[nH]c3cnc(N4CCS(=O)(=O)CC4)cc32)CC1` [Example 223, N-((2E)-6-(1,1-Dioxido-4-thiomorpholinyl)-1-(cis-4-((1-methylethyl)carbamoyl)cyclohexyl)-1,3-dihydro-2H-imidazo[4,5-c]pyridin-2-ylidene)-4-fluorobenzamide] was tested. Which IC50 did it give?
**A.** The IC50 was less than 50 nM.

**Q.** With `CC(C)NC(=O)[C@H]1CC[C@@H](n2/c(=N/C(=O)c3ccc(F)cc3)[nH]c3cnc(N4CCN(S(C)(=O)=O)CC4)cc32)CC1` [Example 224, (E)-4-Fluoro-N-(1-(cis-4-(isopropylcarbamoyl)cyclohexyl)-6-(4-(methylsulfonyl)-piperazin-1-yl)-1H-imidazo[4,5-c]pyridin-2(3H)-ylidene)benzamide] as the compound, how does the IC50 read?
**A.** The IC50 was less than 50 nM.

**Q.** How did the IC50 turn out when `CC(C)NC(=O)[C@H]1CC[C@@H](n2/c(=N/C(=O)c3ccc(F)cc3)[nH]c3cnc(N4CCN(C)CC4)cc32)CC1` [Example 225, (E)-4-Fluoro-N-(1-(cis-4-(isopropylcarbamoyl)cyclohexyl)-6-(4-methylpiperazin-1-yl)-1H-imidazo[4,5-c]pyridin-2(3H)-ylidene)benzamide] was run?
**A.** The IC50 was less than 50 nM.

**Q.** For `CC(C)NC(=O)[C@H]1CC[C@@H](n2/c(=N/C(=O)c3ccc(F)cc3)[nH]c3cnc(NCC(C)(C)O)cc32)CC1` [Example 226, (E)-4-Fluoro-N-(6-(2-hydroxy-2-methylpropylamino)-1-(cis-4-(isopropylcarbamoyl)cyclohexyl)-1H-imidazo[4,5-c]pyridin-2(3H)-ylidene)benzamide], which IC50 is on record?
**A.** Its IC50 is less than 50 nM.

**Q.** `CC(C)C(=O)N[C@H]1CC[C@@H](n2/c(=N/C(=O)c3ccc(F)cc3)[nH]c3ccc(CN4CCC(C(C)(C)O)CC4)cc32)CC1` [Example 227, (E)-4-Fluoro-N-(6-((4-(2-hydroxypropan-2-yl)piperidin-1-yl)methyl)-1-(cis-4-isobutyramidocyclohexyl)-1H-benzo[d]imidazol-2(3H)-ylidene)benzamide] was tested. Which IC50 did it give?
**A.** The IC50 was 50 to 100 nM.

**Q.** For `CC(C)C(=O)N[C@H]1CC[C@@H](n2/c(=N/C(=O)c3cccc(F)c3)[nH]c3ccc(CN4CCC(C(C)(C)O)CC4)cc32)CC1` [Example 228, (E)-3-Fluoro-N-(6-((4-(2-hydroxypropan-2-yl)piperidin-1-yl)methyl)-1-(cis-4-isobutyramidocyclohexyl)-1H-benzo[d]imidazol-2(3H)-ylidene)benzamide], which IC50 is on record?
**A.** The IC50 was 100 to 1000 nM.
